The values below come from patent US20250134889A1, “TARGETING IRE1 KINASE AND FMRP FOR PROPHYLAXIS, MANAGEMENT AND TREATMENT OF ATHEROSCLEROSIS” (CEDARS-SINAI MEDICAL CENTER, priority 2022, published 2025).

The structures appear in SMILES notation.

The assay has as its system PM. Description: In vivo efferocytosis. The following applies: C57BL/6, AMG-18 30 mg/kg 8 hours, CFSE-labeled ACs i.p. 1.5 hours. On the set-up: species or system mouse. The source says:
FIGS. 3A-3G depict that FMRP-deficiency increases efferocytosis in vivo. (For all images scale bar=50 μm; Red: Macrophages, Green: AC/AC-1, Violet: AC-2. Data are mean±SEM. Unpaired t-test with Welch's correction. * P≤0.05, ** P≤0.01, *** P≤0.001.) • 3A-3E. In vitro and in vivo efferocytosis experiments, where percentage of macrophages F4/80^+ (red) that ingested apoptotic cells (AC) labeled with carboxyfluorescein succinimidyl ester (CFSE)^+ (green) were reported as % efferocytosis. • 3A. BMDMs were transfected with Fmr1- or control-siRNA and incubated CFSE-labeled AC for the indicated hours (n=4). • 3B. Fmr1^+/+ and Fmr1^−/− BMDMs were treated with PA (500 μM) for 6 hours and then incubated with CFSE-labeled ACs for 4 hours (n=4). • 3C. Fmr1^+/+ and Fmr1^−/− mice were fed WD (16 weeks) and injected intraperitoneally with CFSE-labeled AC (1.5 hours), followed by PM elicitation (n=4-5). • 3D. BMDM were pre-treated either with vehicle (DMSO) or AMG-18 (5 μM) for 1 hour then incubated with CFSE-labeled ACs for 4 hours (n=4). • 3E. […] In vitro continuous efferocytosis experiments, where macrophages were stained for F4/80^+ (red), AC were labeled with CFSE (AC-1; green) or Violet (AC2; violet). % continuous efferocytosis was determined by the ratio of F4/80^+, CFSE^+ and Violet^+ (triple positive) cells to total F4/80^+/+ and CFSE^+ (double positive) cells. • 3F. […]

Regarding `Cc1ccc2c(NS(=O)(=O)c3ccccc3Cl)cccc2c1Oc1ncccc1-c1ccnc(N[C@H]2CCCNC2)n1` [AMG-18], the “efferocytosis of ACs by PM in vivo” value is “induced”.
